Reference: US9725695B2, “Stem cell defined media for xeno-free and feeder free conditions and uses thereof” (The Regents of the University of California, priority 2010, dated 2017)

Experiments:
H-9s [1] = assay: H-9s concentration after 3 days in low protein formulation with different BME concentrations; assay type: cell-based, human; conditions: 20 μM, low protein amount formulation, p<0.01, t-test
Source text: FIG. 7: H-9s concentration after 3 days of culture in low protein based formulation with different BME concentrations. Error bars were generated through independent quadruplicates.
Having a meticulous comparison between all RCCDs performed, it was noticed that BME concentration was different due to supplier differences. […] Still, considering that BME is not just an antioxidant but a denaturizing chemical as well, it is expected that this compound would have a greater effect on media formulated with low amount of proteins.
Astonishingly, BME is normally added and recommended in KSR based media and feeder free media like mTeSR1 and StemPro. However, the negative effect of this compound is probably buffered by the huge amount of proteins that these media got, around 10 grams per liter, while the invention provides at least 20 times less. This discovery represents a breakthrough in terms of what are the real needs of an ES cell, drastically changing the media and cell's environment.

wild-type iPS line [2] = assay: Feeder free 2-variable RCCD (Activin A, TGF-beta-1): percent of pluripotency, FACs dual staining SSEA-4 and Nanog; assay type: cell-based; conditions: p>0.1
Source text: (§1) Aiming to improve the efficacy of the media, stimulating other pathways, besides the FGF-path, were explored. The Nodal/Activin pathway is related to pluripotency/self-renew (XIAO, 2006), than the factors from TGF superfamily. Activin A (Peprotech, Rocky Hill, N.J.; catalog number 120-14E) and TGF-beta-1 (Peprotech, Rocky Hill, N.J.; catalog number 100-21C), were investigated in a 2-variable RCCD (Table 20).
(§2) In these experiments, a wild-type iPS line was used. In the same fashion as the feeder conditions, cells were homogenously inoculated in several plates in each different formulation. The main difference in this step was the readout analyzed. Kinetic growth were not obtained due to the problems related to managing several feeder-free plates. Thus, instead of calculating integral and Px,max, two other readouts were used. The first one was the final cell growth achieved, called here as self-renew and the other one was percent of pluripotency, obtained from FACs analyzes by the dual staining with SSEA-4 and Nanog.

H-9 cells [3] = assay: Kinetic growth of H-9 cells on feeders in PB12/RCCD media formulations (Integral, Px,max, μ) with Statistica effect/regression models; assay type: cell-based, human; conditions: codified values
H-9 cells [4] = assay: as above; assay type: cell-based, human; set-up: Effect on Integral / Effect on μ: unit not given here; conditions: for Regression coefficient (Linear), Px, max / Regression coefficient (Quadratic), Px, max / Regression coefficient (Linear), Integral: 1st RCCD, codified values; for Regression coefficient (Linear), Px, max / Regression coefficient (Quadratic), Px, max: R^2 = 80.0%; for Regression coefficient (Linear), Integral: R^2 = 86.4%; for Effect on Integral / Effect on Px, max / Effect on μ: PB12, level −1 to +1 (ranges Table 2), least square method
Source text: A Placket-Burman matrix of 12 independent conditions (PB12) was used (Table 1), according to the Design of Experiments (DOE) methodology for the screening of 8 factors (RODRIGUES & IEMMA, 2005). […] Since this first step, the PB12, is a screening step, whenever it was possible the concentration of the factor was set as zero. • Condition 0: represents the central condition of the DOE, being the mean value obtained from averaging the values for levels −1 and +1. In addition to the central condition, the “main” central condition is defined as a state when all factors are set to condition 0.
In total, 14 different conditions were examined: 12 related to the PB12 matrix, 1 related to the “main” central condition that was performed in quadruplicates for the error estimation and a control condition with KSR. The basal media was: a 1:1 mixture 1:1 of DMEM and Ham's F12 (DMEM/F12; Mediatech, Manassas, Va.; catalog number 10-092), 1% NEAA, 110 μM β-mercaptoethanol (BME; Sigma-Aldrich, St. Louis, Mo.; catalog number M7522), 50 μg/mL gentamicin sulfate (Mediatech, Manassas, Va.; catalog number 30-005-CR) and 8 ng/mL of FGF-2 (Peprotech, Rocky Hill, N.J.; catalog number 100-18B). FGF-2 was reconstituted in PBS at 100 ug/mL and was added to the media for a final concentration of 8 ng/mL at the start of the culture. During the culture period, additional FGF-2 (8 ng/mL) was added directly to the media on a daily basis.
Every 24 hours one well from each condition and 4 wells from the main central condition were enzymatic dissociated and counted with the help of an automatic counter (NucleoCounter NC-100), for an unbiased measure of cell growth. In that way, by the end of the 5 days, a kinetic curve was obtained for every single condition (FIG. 1). Readouts like integral of cells (integral; defined as area below the curve), maximum productivity (Px,max; defined as the highest value obtained from dividing cell number by time) or and specific global ( ) growth rate (or speed of cell growth obtained from the formula dX/dt=pX) were calculated in order to perform the statistics comparing all different curves (Table 3).
Through the estimation of the effects from the least square method and the calculation of the errors obtained by the replicates performed on the main central condition (formulation 13), “t” was calculated as the ratio of effect and error.
By comparing the calculated “t” value with “t” values from a Student's “t” distribution table for a bilateral distribution, the p-value was obtained for each parameter in every readout.
Aiming to understand better the contribution of each protein in the formulation of the media, an optimization step was performed using the Three-Variable Rotatable Central Composite Design (RCCD; Rodrigues and lemma, 2005). The concentration range of each supplement was the same as given in Table 2 for the PB12 design, with the same concentration for the level 0, −1, and +1 condition.
The basal media was: a 1:1 mixture 1:1 of DMEM and Ham's F12 (DMEM/F12; Mediatech, Manassas, Va.; catalog number 10-092), 1.5% NEAA, 8.46 mg/L citric acid, 0.89×10^−4 mM sodium selenite, 2 mM glutamine (total of 4.5 mM), BME 110 μM, gentamicin sulfate 50 μg/mL and 8 ng/mL of FGF-2.
As before, kinetics growth of H-9 cells were obtained and readouts like Integral and Px, max were calculated (Table 6).
Through the use of Statistica software (StatSoft, Tulsa, Okla.), a second order mathematical model was generated in order to evaluate the real contribution of each supplement (Table 7).

wild-type iPS line [5] = assay: Feeder free 2-variable RCCD (Activin A, TGF-beta-1): self-renew (final cell growth achieved); assay type: cell-based; conditions: first feeder-free 2-variable RCCD, R^2 = 90.3%, p < 0.1; for Self-renew regression Coefficient (Linear): linear term of coded variable; for Self-renew regression Coefficient (Quadratic): quadratic term of coded variable
Source text: as §1, §2
Analyzing the model, it is clear that TGF-beta-1 and Activin A have similar parameters. Additionally, they got a negative interaction with each other; meaning that, from an optimization point of view, if one is raised the other should be diminished. Taking a look into the surface gives a better clue of the best regions.

H-9s [6] = conditions: extra amount of bicarbonate (2.4 g/L vs 1.2 g/L)
Protocol: A simple test was performed with KSR formulation, just changing basal media supplier and consequently just changing the amount of buffer.

[7] = RCCD for NEAA, citric acid and glutamine, R^2 = 89.5%
[8] = RCCD for NEAA, citric acid and glutamine, R^2 = 90.7%

OCCS [BME, β-mercaptoethanol]
effect on ES cell growth (H-9s [1]): statistically negative effect

TGF-beta-1: TGF-beta-1 (Peprotech), factor from TGF superfamily
statistical relevance of model parameters for pluripotency (wild-type iPS line [2]): no parameters either related to Activin A or TGF-beta-1 that were statistically relevant

IGF-1
Regression coefficient (Quadratic), Integral (H-9 cells [3]; 1st RCCD, R^2 = 86.4%): −1.19
Regression coefficient (Linear), Px, max (H-9 cells [3]; 2nd RCCD, R^2 = 37.9%): 0.0021
Regression coefficient (Quadratic), Px, max (H-9 cells [3]; 2nd RCCD, R^2 = 37.9%): −0.0011
Regression coefficient (Linear), Integral (H-9 cells [3]; 2nd RCCD, R^2 = 62.7%): 17.03
Regression coefficient (Quadratic), Integral (H-9 cells [3]; 2nd RCCD, R^2 = 62.7%): −4.60
Regression coefficient (Linear), Integral (H-9 cells [3]; 3rd RCCD, R^2 = 65.8%): 0.24
Regression coefficient (Quadratic), Integral (H-9 cells [3]; 3rd RCCD, R^2 = 65.8%): 7.12
Regression coefficient (Linear), Px, max (H-9 cells [3]; 3rd RCCD, R^2 = 86.4%): 0.0003
Regression coefficient (Quadratic), Px, max (H-9 cells [3]; 3rd RCCD, R^2 = 86.4%): 0.0041
Regression coefficient (Linear), Px, max (H-9 cells [3]; 4th RCCD, R^2 = 69.0%): 0.0028
Regression coefficient (Quadratic), Px, max (H-9 cells [3]; 4th RCCD, R^2 = 69.0%): 0.0046
Regression coefficient (Linear), Integral (H-9 cells [3]; 4th RCCD, R^2 = […]): 3.10
Regression coefficient (Quadratic), Integral (H-9 cells [3]; 4th RCCD, R^2 = […]): 10.30
Regression coefficient (Linear), Px, max (H-9 cells [4]): 0.0121
Regression coefficient (Quadratic), Px, max (H-9 cells [4]): −0.0036
Regression coefficient (Linear), Integral (H-9 cells [4]): 42.99
Effect on Integral (H-9 cells [4]): 97.69
Effect on Px, max (H-9 cells [4]): 0.0292
Effect on μ (H-9 cells [4]): 0.0027

NC(=O)CC[C@H](N)C(=O)O [Glut, glutamine]
Regression coefficient (Linear), Px, max (H-9 cells [3]; [7]): −0.0010
Regression coefficient (Quadratic), Px, max (H-9 cells [3]; [7]): −0.0050
Regression coefficient (Linear), Integral (H-9 cells [3]; [8]): 2.10
Regression coefficient (Quadratic), Integral (H-9 cells [3]; [8]): −10.20
Effect on Integral (H-9 cells [4]): −39.15
Effect on Px, max (H-9 cells [4]): −0.0088
Effect on μ (H-9 cells [4]): 0.0023

Transf.: CellPrime rTransferrin AF recombinant human transferrin (Millipore)
Regression coefficient (Quadratic), Integral (H-9 cells [3]; 1st RCCD, R^2 = 86.4%): 4.06
Regression coefficient (Linear), Px, max (H-9 cells [3]; 2nd RCCD, R^2 = 37.9%): 0.0027
Regression coefficient (Quadratic), Px, max (H-9 cells [3]; 2nd RCCD, R^2 = 37.9%): −0.0014
Regression coefficient (Linear), Integral (H-9 cells [3]; 2nd RCCD, R^2 = 62.7%): 18.70
Regression coefficient (Quadratic), Integral (H-9 cells [3]; 2nd RCCD, R^2 = 62.7%): 5.70
Regression coefficient (Linear), Integral (H-9 cells [3]; 3rd RCCD, R^2 = 65.8%): 4.61
Regression coefficient (Quadratic), Integral (H-9 cells [3]; 3rd RCCD, R^2 = 65.8%): 3.59
Regression coefficient (Linear), Px, max (H-9 cells [3]; 3rd RCCD, R^2 = 86.4%): 0.0013
Regression coefficient (Quadratic), Px, max (H-9 cells [3]; 3rd RCCD, R^2 = 86.4%): 0.0018
Regression coefficient (Linear), Px, max (H-9 cells [3]; 4th RCCD, R^2 = 69.0%): 0.0021
Regression coefficient (Quadratic), Px, max (H-9 cells [3]; 4th RCCD, R^2 = 69.0%): −0.0034
Regression coefficient (Linear), Integral (H-9 cells [3]; 4th RCCD, R^2 = […]): 1.17
Regression coefficient (Quadratic), Integral (H-9 cells [3]; 4th RCCD, R^2 = […]): −14.34
Regression coefficient (Linear), Px, max (H-9 cells [4]): 0.0107
Regression coefficient (Quadratic), Px, max (H-9 cells [4]): 0.0028
Regression coefficient (Linear), Integral (H-9 cells [4]): 43.29
Effect on Integral (H-9 cells [4]): 65.44
Effect on Px, max (H-9 cells [4]): 0.0189
Effect on μ (H-9 cells [4]): 0.0169

TGF-β-1
Self-renew regression Coefficient (Linear) (wild-type iPS line [5]): −0.508
Self-renew regression Coefficient (Quadratic) (wild-type iPS line [5]): 0.936

Activin A: Activin A (Peprotech), factor from TGF superfamily
statistical relevance of model parameters for pluripotency (wild-type iPS line [2]): no parameters either related to Activin A or TGF-beta-1 that were statistically relevant
Self-renew regression Coefficient (Linear) (wild-type iPS line [5]): −0.430
Self-renew regression Coefficient (Quadratic) (wild-type iPS line [5]): 0.798

O=C([O-])O.[Na+] [bicarbonate, sodium bicarbonate]
cell growth with KSR formulation (H-9s [6]): perform better

NCCO [Etan., ethanolamine]
Effect on Integral (H-9 cells [4]): −0.56
Effect on Px, max (H-9 cells [4]): −0.0055
Effect on μ (H-9 cells [4]): 0.0006

O=C(O)CC(O)(CC(=O)O)C(=O)O [Citric Acid, citric acid]
Regression coefficient (Linear), Px, max (H-9 cells [3]; [7]): −0.0020
Regression coefficient (Quadratic), Px, max (H-9 cells [3]; [7]): −0.0104
Regression coefficient (Linear), Integral (H-9 cells [3]; [8]): 1.63
Regression coefficient (Quadratic), Integral (H-9 cells [3]; [8]): −33.83
Effect on Integral (H-9 cells [4]): 17.09
Effect on Px, max (H-9 cells [4]): 0.0060
Effect on μ (H-9 cells [4]): 0.0065

O=[Se]([O-])[O-].[Na+].[Na+] [Selenite, sodium selenite]
Effect on Integral (H-9 cells [4]): 7.46
Effect on Px, max (H-9 cells [4]): 0.0029
Effect on μ (H-9 cells [4]): 0.0098
